Data as given in US8609587B2, “Synergistic herbicidal compositions containing propyzamide and aminopyralid” (Dow AgroSciences, LLC., priority 2010, dated 2013).

Legend:
Format in all cases: in vivo
[1] = system: Matricaria spp L. (chamomile species); assay: Field trial in winter oilseed rape, visual weed control, MATSS; details: 93 to 188 Days after Application
Method: (§1) Field trials were conducted in winter oilseed rape crop using small plot research methodology. The oilseed rape crop was grown using normal cultural practices for the respective area of the trials, using varieties, fertilization and maintenance to ensure normal growth of the crop and the weeds. Plot size was 2 meters (m) wide by 10 m long with 4 replicates by treatment. All treatments were applied preemergence to early postemergence to the weeds using a compressed air backpack sprayer delivering 200 liters per hectare (L/ha) spray volume. Commercially available product of propyzamide/pronamide was mixed with a formulation of aminopyralid potassium at appropriately formulated product rates to achieve the desired rates based on a unit area of application (hectare) to achieve the desired rates as shown. Treatments consisted of propyzamide applied alone, as well as aminopyralid applied alone, and in combination, to measure herbicidal weed control and any synergistic interactions. Treatments were rated at different intervals from treatment to time of evaluation up to the following year when the crop starts to grow again in the spring. The weed efficacy was compared to the untreated control plants. Visual weed control was scored on a scale of 0 to 100 percent where 0 corresponds to no injury and 100 corresponds to complete kill. […]

[2] = system: Brassica napus L. ssp. Napus (winter oil seed rape); assay: Field trial, crop tolerance (crop injury) of winter oilseed rape, BRSNW; details: 167 Days after Application
Method: (§2) Field trials were conducted in winter oilseed rape crop using small plot research methodology. The oilseed rape crop was grown using normal cultural practices for the respective area of the trials, using varieties, fertilization and maintenance to ensure normal growth of the crop and the weeds. Plot size was 2 meters (m) wide by 10 m long with 4 replicates by treatment. All treatments were applied preemergence to early postemergence to the weeds using a compressed air backpack sprayer delivering 200 liters per hectare (L/ha) spray volume. Commercially available product of propyzamide/pronamide was mixed with a formulation of aminopyralid potassium at appropriately formulated product rates to achieve the desired rates based on a unit area of application (hectare) to achieve the desired rates as shown. Treatments consisted of propyzamide applied alone, as well as aminopyralid applied alone, and in combination, to measure herbicidal weed control and any synergistic interactions. Treatments were rated at different intervals from treatment to time of evaluation up to the following year when the crop starts to grow again in the spring. The weed efficacy was compared to the untreated control plants. Visual weed control was scored on a scale of 0 to 100 percent where 0 corresponds to no injury and 100 corresponds to complete kill. Colby's equation was used to determine the herbicidal effects expected from the mixtures (Colby, S. R. […] Calculation of the synergistic and antagonistic response of herbicide combinations.). The following equation was used to calculate the expected activity of mixtures containing two active ingredients, A and B: […] A=observed efficacy of active ingredient A at the same concentration as used in the mixture; B=observed efficacy of active ingredient B at the same concentration as used in the mixture.

[3] = system: Matricaria recutita L. (wild chamomile); assay: Field trial in winter oilseed rape, visual weed control, MATCH; details: 112 to 188 Days after Application
Method: as §1

[4] = system: Papaver rhoeas L. (corn poppy); assay: Field trial in winter oilseed rape, visual weed control, PAPRH; details: for % Control PAPRH (1) Ob: France, 112 to 188 Days after Application; for % Control PAPRH (2) Ob: Great Britain
Method: as §2

[5] = system: Viola arvensis Murr. (field violet); assay: Field trial in winter oilseed rape, visual weed control, VIOAR; details: 112 to 188 Days after Application
Method: as §2

[6] = system: Poa annua L. (annual bluegrass); assay: Field trial in winter oilseed rape, visual weed control, POANN; details: Great Britain, 93 to 200 Days after Application
Method: as §2

[7] = system: Alopecurus myosuroides Huds. (blackgrass); assay: Field trial in winter oilseed rape, visual weed control, ALOMY; details: 93 to 200 Days after Application
Method: as §2

Compound: Nc1cc(Cl)nc(C(=O)O)c1Cl [Aminopyralid, 4-amino-3,6-dichloro-2-pyridinecarboxylic acid]
- % Control MATSS Ob ([1]; aminopyralid 10 g ae/ha alone): 48%
- % Crop Injury BRSNW Ob ([2]; aminopyralid 6 g ae/ha alone): 23%
- % Crop Injury BRSNW Ob ([2]; aminopyralid 8 g ae/ha alone): 22%
- % Control MATCH Ob ([3]; aminopyralid 6 g ae/ha alone): 80%
- % Control PAPRH (1) Ob ([4]; aminopyralid 6 g ae/ha alone): 48%
- % Control PAPRH (1) Ob ([4]; aminopyralid 8 g ae/ha alone): 68%
- % Control PAPRH (2) Ob ([4]; aminopyralid 6 g ae/ha alone, 93 to 188 Days after Application (Table 2)): 48%
- % Control PAPRH (2) Ob ([4]; aminopyralid 6 g ae/ha alone, 112 to 188 Days after Application (Table 1)): 0%
- % Control PAPRH (2) Ob ([4]; aminopyralid 8 g ae/ha alone, 93 to 188 Days after Application (Table 2)): 68%
- % Control PAPRH (2) Ob ([4]; aminopyralid 8 g ae/ha alone, 112 to 188 Days after Application (Table 1)): 75%
- % Control VIOAR Ob ([5]; aminopyralid 6 g ae/ha alone): 0%
- % Control VIOAR Ob ([5]; aminopyralid 8 g ae/ha alone): 0%
- % Control POANN (1) Ob ([6]; aminopyralid 6 g ae/ha alone): 0%
- % Control POANN (2) Ob ([6]; aminopyralid 6 g ae/ha alone): 0%
- % Control POANN (1) Ob ([6]; aminopyralid 8 g ae/ha alone): 0%
- % Control POANN (2) Ob ([6]; aminopyralid 8 g ae/ha alone): 0%
- % Control ALOMY Ob ([7]; aminopyralid 6 g ae/ha alone): 0%
- % Control ALOMY Ob ([7]; aminopyralid 8 g ae/ha alone): 0%

Compound: C#CC(C)(C)NC(=O)c1cc(Cl)cc(Cl)c1 [Propyzamide, 3,5-dichloro-N-(1,1-dimethylpropynyl)benzamide]
- % Control MATSS Ob ([1]; propyzamide 750 g ai/ha alone): 7%
- % Crop Injury BRSNW Ob ([2]; propyzamide 750 g ai/ha alone): 0%
- % Crop Injury BRSNW Ob ([2]; propyzamide 840 g ai/ha alone): 2%
- % Control MATCH Ob ([3]; propyzamide 750 g ai/ha alone): 0%
- % Control PAPRH (1) Ob ([4]; propyzamide 750 g ai/ha alone): 18%
- % Control PAPRH (2) Ob ([4]; propyzamide 750 g ai/ha alone, 112 to 188 Days after Application (Table 1)): 0%
- % Control PAPRH (2) Ob ([4]; propyzamide 840 g ai/ha alone, 93 to 188 Days after Application (Table 2)): 11%
- % Control VIOAR Ob ([5]; propyzamide 750 g ai/ha alone): 27%
- % Control POANN (1) Ob ([6]; propyzamide 750 g ai/ha alone): 22%
- % Control POANN (2) Ob ([6]; propyzamide 750 g ai/ha alone): 22%
- % Control POANN (1) Ob ([6]; propyzamide 840 g ai/ha alone): 22%
- % Control ALOMY Ob ([7]; propyzamide 750 g ai/ha alone): 75%
